Patent publication US20090239949A1, “Polar Hydrophilic Prodrugs of Amphetamine and Other Stimulants and Processes for Making and Using the Same” (priority 2007, published 2009)

How the values were obtained:
[1] = Oral pharmacokinetic study of Cit-Amp vs Lys-Amp (Example 13); details: for % Tmax: relative to Lys-Amp
[2] = Intranasal pharmacokinetic study of d-amphetamine, hArg-Amp and Lys-Amp (Example 15); details: for % Tmax: relative to d-amp
[3] = Intravenous pharmacokinetic study of d-amphetamine, hArg-Amp and Lys-Amp (Example 16); details: for % Tmax: relative to d-amp
[4] = Oral pharmacokinetic study of Lys-Amp, Sar-Amp, hCit-Amp and hArg(NO2)-Amp (Example 14); details: for Cmax: plasma d-amphetamine, n=5
[5] = Average results of oral pharmacokinetic studies of hArg-Amp vs Lys-Amp (Table 3); details: relative to Lys-Amp
[6] = Pharmacokinetics of d-amphetamine after parenteral (intranasal, intravenous) administration of hArg-Amp (Example 1); details: parental routes (intranasal, intravenous)
[7] = Oral pharmacokinetic study of hArg-Amp vs Lys-Amp, plasma d-amphetamine by ELISA (Example 12); details: relative to Lys-Amp

C[C@@H](Cc1ccccc1)NC(=O)[C@@H](N)CCCNC(N)=O.Cl [Cit-Amp, 1-citrulline-d-amphetamine hydrochloride]
% Tmax [1]: 25%

C[C@H](N)Cc1ccccc1 [d-amp, d-amphetamine]
% Tmax ([2]; intranasal): 100%
Tmax ([2]; male, Sprague-Dawley, rat, in vivo, inhaled or intranasal, […]): 5 min
% Tmax ([3]; intravenous): 100%
Tmax ([3]; male, Sprague-Dawley, rat, in vivo, iv, […]): 5 min

C[C@@H](Cc1ccccc1)NC(=O)[C@@H](N)CCCCNC(N)=N[N+](=O)[O-] [hArg(NO2)-Amp, l-homoarginine(NO2)-d-amphetamine]
Cmax [4]: 59 ng/mL

C[C@@H](Cc1ccccc1)NC(=O)[C@@H](N)CCCCN=C(N)N.Cl.Cl [hArg-Amp, l-homoarginine-d-amphetamine dihydrochloride]
% Tmax [5]: 200-400%
Tmax ([2]; intranasal, plasma d-amphetamine): 30 min
% Tmax ([2]; intranasal): 600%
Tmax ([3]; intravenous, plasma d-amphetamine): 5 m
% Tmax ([3]; intravenous): 100%
release of amphetamine [6]: < 25%

l-homocitrulline-d-amphetamine hydrochloride [hCit-Amp]
Cmax [4]: 57 ng/mL

l-lysine-d-amphetamine [Lys-Amp]
Cmax ([1]; plasma d-amphetamine, n=5): 59 ng/mL
% Tmax [1]: 100%
% Tmax [5]: 100%
% Tmax ([2]; intranasal): 3600%
% Tmax ([3]; intravenous): 100%
Cmax [4]: 54 ng/mL
% Tmax ([4]; relative to Lys-Amp): 100%
% Tmax [7]: 100%

sarcosine-d-amphetamine [Sar-Amp]
Cmax [4]: 45 ng/mL
